Results on one molecule are retold here after US20160030438A1, “ANTI-TUMORAL COMPOSITION COMPRISING A PI3KBETA INHIBITOR AND A RAF INHIBITOR, TO OVERCOME CANCER CELLS RESISTANCE” (SANOFI, priority 2013, published 2016).

Holding throughout (assay type): cell-based
Experiment [1] relates to human melanoma cell line A2058. Put plainly: In vitro pro-apoptotic activity (PARP cleavage) in A2058 in a concentration-dependent manner, example 6. The conditions noted are these: single agent 100 nM, A2058, example 6. How it is done: (§1) The characterization of the interaction between compound (I) and compound (II) was studied using western blotting method which allows investigating apoptosis by detecting the cleavage of the PARP protein.
(§2) The human melanoma A2058 cell line was purchased at ATCC (Ref number CRL-11147 Batch 5074651). The A2058 cells were cultured in DMEM High glucose medium supplemented with 10% FBS and 2 mM L-Glutamine.
(§3) Cell treatment, Western Blot experiment and calculation of apoptosis fold induction were performed according to the material and method described in example 2.

For experiment [2], the system named is human melanoma cell line WM-266-4. In words: In vitro pro-apoptotic activity (PARP cleavage western blot) in WM-266-4, example 2. The conditions noted are these: 100 nM, positive control, WM-266-4, example 2. How it is done:
The characterization of the interaction between compound (I) and compound (II) was studied using western blotting method measuring the expression of cleaved PARP which allows to investigate apoptosis by detecting the cleavage of the PARP protein.
(§4) The human melanoma WM-266-4 cell line was purchased at ATCC (Ref number CRL-1676 Batch 3272826). The WM-266-4 cells were cultured in RPMI1640 medium supplemented with 10% FBS and 2 mM L-Glutamine.
They were diluted following a 10 fold step dilution in DMSO in order to obtain a 1 mM solution. Then each solution at 10 mM and 1 mM was diluted 50-fold in culture medium containing 10% serum before being added onto cells with a 20-fold dilution factor to reach final concentrations of 10,000 nM and 1,000 nM. The final DMSO concentration was 0.1% in controls and in all treated wells.
WM-266-4 cells were seeded into 6-well microplates at 1 000 000 cells per well, in complete culture medium and incubated at 37° C., 5% CO2, overnight.
At the end of cell treatment period, adherent cells as well as cells in the cell culture supernatant were lysed for the preparation of the proteins. Cells were lysed in a lysis buffer containing Hepes 50 mM, NaCl 150 mM, Glycerol 10%, Triton 1%, pH=7.5, adding extemporaneously a cocktail of protease and phosphatase inhibitors diluted 100 fold. Protein concentrations in each sample were determined using microBCA technique according to manufacturer's instructions. Western blotting was performed loading 20 μg of proteins in each gel well, and according to the operating procedure. […] After western blotting revelation according to the operating procedure instructions, luminescence was read using FujiFilm (Ray Test) apparatus.
This instrument measures the total signal of luminescence obtained on Fujifilm machine (AU) for each selected band. Then, it subtracts the background value (BG) proportional to the size of the selected band or Area. The background is calculated from a band taken on the specific background of the western blot, to obtain the specific signal or (AU−BG) for each band. The calculation of the fold induction is performed for each treatment with compound or combination of compounds using the following formula:
Fold Induction=((AU−BG)t/(AU−BG)st)*100
(Immunoblotting shows a protein as a band on a membrane.)

The test system of experiment [3] is human melanoma cell line A2058. Put plainly: In vitro pro-apoptotic activity (PARP cleavage western blot) in A2058, example 4. How it is done:
as §1, §2, §3

Experiment [4] concerns human melanoma cell line WM-266-4. In words: In vitro pro-apoptotic activity (PARP cleavage) in WM-266-4 in a concentration-dependent manner, example 5. The conditions noted are these: single agent 100 nM, WM-266-4, example 5. How it is done: as §1, §4
They were diluted following two 10-fold step dilution in DMSO in order to obtain a 1 mM solution and a 0.1 mM solution Then each solution at 10 mM, 1 mM or 0.1 mM was diluted 50-fold in culture medium containing 10% serum before being added onto cells with a 20-fold dilution factor to reach final concentrations of 10,000 nM, 1,000 nM and 100 nM. The final DMSO concentration was 0.1% in controls and in all treated wells.
as §3

Consider `CC(=O)O[C@@]12CO[C@@H]1C[C@H](O)[C@@]1(C)C(=O)[C@H](O)C3=C(C)[C@@H](OC(=O)[C@H](O)[C@@H](NC(=O)OC(C)(C)C)c4ccccc4)C[C@@](O)([C@@H](OC(=O)c4ccccc4)[C@H]21)C3(C)C` [Taxotere], for which the fold induction at 0.1 µM stood at 6.79 in experiment [1] (Homo sapiens); 2.88 in experiment [2] (Homo sapiens); 1.66 in experiment [3] (Homo sapiens, A2058, read-out: Fold induction of PARP cleavage); 1.56 in experiment [4] (Homo sapiens). For the same molecule, the “PARP cleavage signal (AU-BG)” value is 14448019 AU-BG in experiment [1]; 2054900 AU-BG in experiment [2]; 3563893 AU-BG in experiment [3] (100 nM, positive control, A2058, example 4); 399272 AU-BG in experiment [4].
